How the values were obtained:
Format in all cases: functional
[1] = system: NCI-H460; test: Cytotoxicity against Homo sapiens (human) NCI-H460 cells assessed as growth inhibition at 10 uM after 24 hr; settings: NCI-H460, 24 h, read-out: GI
[2] = system: 786-0; test: Cytotoxicity against Homo sapiens (human) 786-0 cells assessed as growth inhibition at 10 uM after 24 hr; settings: 786-0, 24 h, read-out: GI
[3] = system: MDA-MB-435; test: Cytotoxicity against Homo sapiens (human) MDA-MB-435 cells assessed as growth inhibition at 10 uM after 24 hr; settings: MDA-MB-435, 24 h, read-out: GI
[4] = system: OVCAR-5; test: Cytotoxicity against Homo sapiens (human) OVCAR5 cells assessed as growth inhibition at 10 uM after 24 hr; settings: OVCAR-5, 24 h, read-out: GI
[5] = system: HL-60(TB); test: Cytotoxicity against Homo sapiens (human) HL-60(TB) cells assessed as growth inhibition at 10 uM after 24 hr; settings: HL-60, 24 h, read-out: GI
[6] = system: HCT-116; test: Cytotoxicity against Homo sapiens (human) HCT116 cells assessed as growth inhibition at 10 uM after 24 hr; settings: HCT-116, 24 h, read-out: GI
[7] = system: KM12; test: Cytotoxicity against Homo sapiens (human) KM12 cells assessed as growth inhibition at 10 uM after 24 hr; settings: KM12, 24 h, read-out: GI
[8] = system: SR; test: Cytotoxicity against Homo sapiens (human) SR cells assessed as growth inhibition at 10 uM after 24 hr; settings: read-out: GI
[9] = system: HCT-15; test: Cytotoxicity against Homo sapiens (human) HCT15 cells assessed as growth inhibition at 10 uM after 24 hr; settings: HCT-15, 24 h, read-out: GI
[10] = Cytotoxicity against Homo sapiens (human) melanoma cells after 48 hr by SRB assay; settings: Melanoma cell
[11] = system: A498; test: Cytotoxicity against Homo sapiens (human) A498 cells assessed as growth inhibition at 10 uM after 24 hr; settings: A498, 24 h, read-out: GI
[12] = system: SK-MEL-5; test: Cytotoxicity against Homo sapiens (human) SK-MEL-5 cells assessed as growth inhibition at 10 uM after 24 hr; settings: SK-MEL-5, 24 h, read-out: GI
[13] = system: OVCAR-4; test: Cytotoxicity against Homo sapiens (human) OVCAR4 cells assessed as growth inhibition at 10 uM after 24 hr; settings: OVCAR-4, 24 h, read-out: GI
[14] = system: NCI-H23; test: Cytotoxicity against Homo sapiens (human) NCI-H23 cells assessed as growth inhibition at 10 uM after 24 hr; settings: NCI-H23, 24 h, read-out: GI
[15] = system: NCI-H226; test: Cytotoxicity against Homo sapiens (human) NCI-H226 cells assessed as growth inhibition at 10 uM after 24 hr; settings: NCI-H226, 24 h, read-out: GI
[16] = system: PC-3; test: Cytotoxicity against Homo sapiens (human) PC3 cells assessed as growth inhibition at 10 uM after 24 hr; settings: PC-3, 24 h, read-out: GI
[17] = system: HT-29; test: Cytotoxicity against Homo sapiens (human) HT-29 cells assessed as growth inhibition at 10 uM after 24 hr; settings: HT-29, 24 h, read-out: GI
[18] = system: M14; test: Cytotoxicity against Homo sapiens (human) M14 cells assessed as growth inhibition at 10 uM after 24 hr; settings: M14, 24 h, read-out: GI
[19] = Cytotoxicity against Homo sapiens (human) ovarian cancer cells after 48 hr by SRB assay; settings: Cancer cell lines
[20] = Cytotoxicity against Homo sapiens (human) leukemia cells after 48 hr by SRB assay; settings: Leukemia cell
[21] = system: RPMI-8226; test: Cytotoxicity against Homo sapiens (human) RPMI8226 cells assessed as growth inhibition at 10 uM after 24 hr; settings: RPMI-8226, 24 h, read-out: GI
[22] = system: K562; test: Cytotoxicity against Homo sapiens (human) K562 cells assessed as growth inhibition at 10 uM after 24 hr; settings: K562, 24 h, read-out: GI
[23] = Cytotoxicity against Homo sapiens (human) NCI-ADR-RES cells after 48 hr by SRB assay
[24] = Cytotoxicity against Homo sapiens (human) colon cancer cells after 48 hr by SRB assay; settings: Cancer cell lines
[25] = system: SF-539; test: Cytotoxicity against Homo sapiens (human) SF539 cells assessed as growth inhibition at 10 uM after 24 hr; settings: SF-539, 24 h, read-out: GI
[26] = system: RXF 393; test: Cytotoxicity against Homo sapiens (human) RXF393 cells assessed as growth inhibition at 10 uM after 24 hr; settings: RXF 393, 24 h, read-out: GI
[27] = system: MCF7; test: Cytotoxicity against Homo sapiens (human) MCF7 cells assessed as growth inhibition at 10 uM after 24 hr; settings: MCF7, 24 h, read-out: GI
[28] = system: SK-OV-3; test: Cytotoxicity against Homo sapiens (human) SKOV3 cells assessed as growth inhibition at 10 uM after 24 hr; settings: SK-OV-3, 24 h, read-out: GI
[29] = system: SNB-19; test: Cytotoxicity against Homo sapiens (human) SNB19 cells assessed as growth inhibition at 10 uM after 24 hr; settings: SNB-19, 24 h, read-out: GI
[30] = system: MDA-MB-468; test: Cytotoxicity against Homo sapiens (human) MDA-MB-468 cells after 48 hr by SRB assay; settings: MDA-MB-468, 48 h
[31] = system: SF-268; test: Cytotoxicity against Homo sapiens (human) SF268 cells assessed as growth inhibition at 10 uM after 24 hr; settings: SF-268, 24 h, read-out: GI
[32] = Cytotoxicity against Homo sapiens (human) renal cancer cells after 48 hr by SRB assay; settings: Cancer cell lines
[33] = system: TK-10; test: Cytotoxicity against Homo sapiens (human) TK10 cells assessed as growth inhibition at 10 uM after 24 hr; settings: TK-10, 24 h, read-out: GI
[34] = system: DU-145; test: Cytotoxicity against Homo sapiens (human) DU145 cells assessed as growth inhibition at 10 uM after 24 hr; settings: DU-145, 24 h, read-out: GI
[35] = Cytotoxicity against Homo sapiens (human) CNS cancer cells after 48 hr by SRB assay; settings: Cancer cell lines
[36] = system: UACC-62; test: Cytotoxicity against Homo sapiens (human) UACC62 cells assessed as growth inhibition at 10 uM after 24 hr; settings: UACC-62, 24 h, read-out: GI
[37] = read-out: LC50 (the source's name)

Nc1cc(-c2ccc(Cl)cc2)nn1-c1nc(=O)c(/C=C/c2ccco2)n[nH]1
inhibition of growth at 10 µM [1]: 79.6%
inhibition of growth at 10 µM [2]: 53.1%
inhibition of growth at 10 µM [3]: 37.2%
inhibition of growth at 10 µM [4]: 39.1%
inhibition of growth at 10 µM [5]: 4.83%
inhibition of growth at 10 µM [6]: 59%
inhibition of growth at 10 µM [7]: 44%
inhibition of growth at 10 µM [8]: 61.9%
inhibition of growth at 10 µM [9]: 61.9%
GI50 [10]: 6.7 µM
TGI [10]: 59.3 µM
CC50 [10, 37]: > 100 µM
inhibition of growth at 10 µM [11]: 66.2%
inhibition of growth at 10 µM [12]: 54%
inhibition of growth at 10 µM [13]: 70.9%
inhibition of growth at 10 µM [14]: 41.2%
inhibition of growth at 10 µM [15]: 52.6%
inhibition of growth at 10 µM [16]: 47.4%
inhibition of growth at 10 µM [17]: 55.8%
inhibition of growth at 10 µM [18]: 42.6%
GI50 [19]: 3.8 µM
TGI [19]: 43.1 µM
CC50 [19, 37]: 89.7 µM
GI50 [20]: 2.71 µM
TGI [20]: 17.9 µM
CC50 [20, 37]: > 100 µM
inhibition of growth at 10 µM [21]: 56.7%
inhibition of growth at 10 µM [22]: 58.3%
GI50 [23]: 1.23 µM
TGI [23]: 8.11 µM
CC50 [23, 37]: 96.4 µM
GI50 [24]: 4.27 µM
TGI [24]: 22 µM
CC50 [24, 37]: > 100 µM
inhibition of growth at 10 µM [25]: 44.6%
inhibition of growth at 10 µM [26]: 32.2%
inhibition of growth at 10 µM [27]: 54.1%
inhibition of growth at 10 µM [28]: 39.3%
inhibition of growth at 10 µM [29]: 42.4%
GI50 [30]: 3.08 µM
TGI [30]: 22.2 µM
CC50 [30, 37]: > 100 µM
inhibition of growth at 10 µM [31]: 47.5%
GI50 [32]: 5.85 µM
TGI [32]: 37.4 µM
CC50 [32, 37]: > 100 µM
inhibition of growth at 10 µM [33]: 48.8%
inhibition of growth at 10 µM [34]: 36.7%
GI50 [35]: 4.99 µM
TGI [35]: 44.5 µM
CC50 [35, 37]: > 100 µM
inhibition of growth at 10 µM [36]: 47.5%
